Test results reported in BindingDB's records for doi:10.1021/jm801627a (Vernalis (R&D), 2009).
pIC50: −log10 of the molar value.

Biological target: Heat shock 70 kDa protein 1A (Homo sapiens, UniProt P0DMV8)
Test: HSP70 Fluorescence Polarization Assay
Details: pH 7.4; 23 °C
Experimental: A fluorescein-labeled ATP-based probe was utilized, which binds to the GST fused ATPase domain (amino acids 3-383) of HSP70, producing an increase in mP. The presence of a compound which competitively binds to the same site as the probe would lead to decreased mP values, by increasing the amount of free probe. Compounds were tested as 10-point IC50s. Assay mixtures were incubated for three hours prior to reading on the Fusion (ex 485 nm; em 535 nm). The data was fitted using a 4 parameter logistical data model by XLFit 4 (IDBS).

Sequence of Heat shock 70 kDa protein 1A (P0DMV8 whole entry): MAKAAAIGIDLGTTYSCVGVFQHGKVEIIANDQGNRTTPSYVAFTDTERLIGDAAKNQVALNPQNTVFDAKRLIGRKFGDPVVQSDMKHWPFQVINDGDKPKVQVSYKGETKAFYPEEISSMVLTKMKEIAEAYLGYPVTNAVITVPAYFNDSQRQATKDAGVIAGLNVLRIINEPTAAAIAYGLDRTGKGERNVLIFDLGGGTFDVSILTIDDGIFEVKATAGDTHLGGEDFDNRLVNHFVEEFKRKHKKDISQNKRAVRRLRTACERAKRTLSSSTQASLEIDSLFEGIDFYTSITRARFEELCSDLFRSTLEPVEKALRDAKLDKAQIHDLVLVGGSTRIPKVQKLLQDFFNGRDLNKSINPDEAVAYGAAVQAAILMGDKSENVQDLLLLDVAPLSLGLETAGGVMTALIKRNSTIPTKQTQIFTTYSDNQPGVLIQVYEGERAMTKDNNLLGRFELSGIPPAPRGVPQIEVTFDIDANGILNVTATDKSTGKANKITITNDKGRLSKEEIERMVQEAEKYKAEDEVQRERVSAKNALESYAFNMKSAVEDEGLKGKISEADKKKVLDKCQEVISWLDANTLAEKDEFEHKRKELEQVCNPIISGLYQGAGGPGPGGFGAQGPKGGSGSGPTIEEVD

pIC50: > 6.40
SMILES: Nc1ncnc2c1nc(NCc1ccc3ncccc3c1)n2[C@@H]1O[C@H](COCc2cc(F)c(F)c(F)c2)[C@@H](O)[C@H]1O [adenosine-derived inhibitor, 17]
